This is an account of results in BindingDB's records for doi:10.1002/syn.890150302 (Vanderbilt University, 1993).

Values joined by “and” are separate entries in the source; they are usually repeats but may differ in a detail not shown here. Identical values can stand only once.

As usually defined, the Ki is a dissociation constant, usually derived from enzyme kinetics or from competition with a known ligand. Lower therefore signals tighter binding.

The assay addresses D(2) dopamine receptor (Rattus norvegicus, UniProt P61169).

Chain of D(2) dopamine receptor (P61169 whole entry): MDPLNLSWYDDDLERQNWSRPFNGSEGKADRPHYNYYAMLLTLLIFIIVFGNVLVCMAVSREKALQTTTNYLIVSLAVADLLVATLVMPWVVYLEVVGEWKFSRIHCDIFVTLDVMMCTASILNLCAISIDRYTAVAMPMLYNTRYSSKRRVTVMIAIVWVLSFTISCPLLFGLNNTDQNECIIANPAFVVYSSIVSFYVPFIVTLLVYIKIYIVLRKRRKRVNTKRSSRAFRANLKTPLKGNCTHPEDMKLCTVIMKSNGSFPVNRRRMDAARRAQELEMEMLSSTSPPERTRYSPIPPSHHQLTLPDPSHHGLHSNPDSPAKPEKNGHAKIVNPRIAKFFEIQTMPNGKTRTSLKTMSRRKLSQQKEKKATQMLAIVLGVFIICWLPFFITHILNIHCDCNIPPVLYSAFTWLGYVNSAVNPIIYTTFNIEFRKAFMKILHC

`NCc1cc(=O)[nH]o1` registered a Ki greater than 10 µM.
With `CCN1CCC[C@H]1CNC(=O)c1cc(I)cc(OC)c1OC` the figure was 0.0001 µM and 0.00012 µM; with `c1ccc2c(c1)OCC(C1=NCCN1)O2` (centres undefined), greater than 10 µM; with `O=C(c1ccc(F)cc1)C1CCN(CCn2c(=O)[nH]c3ccccc3c2=O)CC1` [3-(2-{4-[(4-fluorophenyl)carbonyl]piperidin-1-yl}ethyl)-1,2,3,4-tetrahydroquinazoline-2,4-dione], 0.555 µM and 0.519 µM.
`CN1CCc2cc3c(cc2[C@H]1[C@@H]1OC(=O)c2c1ccc1c2OCO1)OCO3` [(R)-6-((S)-6-methyl-5,6,7,8-tetrahydro-[1,3]dioxolo[4,5-g]isoquinolin-5-yl)isobenzofuro[5,4-d][1,3]dioxol-8(6H)-one] came in with a Ki greater than 10 µM.
With `C=CCc1ccccc1OC[C@@H](O)CNC(C)C` [ALPRENOLOL,(-)] the figure was > 10 µM and 6.86 µM; with `C=CCN1CC[C@]2(C)c3cc(O)ccc3C[C@@H]1[C@@H]2C` [SKF 10,047 (-)], greater than 10 µM.
For `CN1[C@@H]2CC[C@H]1C[C@@H](OC(=O)c1cc(Cl)cc(Cl)c1)C2` [TROPANYL 3,5-DICHLOROBENZOATE] the value was greater than 10 µM; for `COc1cc2nc(N3CCN(C(=O)c4ccco4)CC3)nc(N)c2cc1OC` [[3H]-Minipress], greater than 10 µM.
